Results from patent US5648474A, “Crystalline etoposide 4'-phosphate diethanolate” (Bristol-Myers Squibb, priority 1991, dated 1997).
Values joined by “and” are separate entries in the source; they are usually repeats but may differ in a detail not shown here. Equal entries are not always repeated.

Assays:
[1] = Stability at 50° C., potency by HPLC (% EP remaining); format: physicochemical; details: for % EP remaining, 2 wk / % EP remaining, 4 wk / % EP remaining, 8 wk: sealed glass vials, control: desiccated at 4° C. (100% assumed potency); for % EP remaining, 2 wk: 20160 min; for % EP remaining, 4 wk: 40320 min; for % EP remaining, 8 wk: 80640 min
Method: a. Crystalline etoposide 4'-phosphate diethanolate prepared as described above. b. Crystalline etoposide 4'-phosphate (unsolvated) was prepared by the following procedure. Etoposide 4'-phosphate (300 mg) in ethanol (175 ml) was heated with stirring at 70° C. to obtain a clear solution. The solution was filtered and the filtrate heated at 70° C. until the volume was reduced to ca. 34 ml. A portion of the solution (ca. 17 ml) was placed in a vial, and seeded with a small amount of needle-shaped etoposide 4'-phosphate crystals previously obtained. The solution was placed in freezer at -12° C. for 4 days and the resulting needle-shaped crystals were harvested as white fluffy material. NMR analysis of this material indicated ethanol content of ca. 1.6% w/w. […]
c. amorphous disodium etoposide 4'-phosphate prepared as described in U.S. Pat. No. 4,904,768. d. amorphous etoposide 4'-phosphate was obtained by dissolving crystalline etoposide 4'-phosphate diethanolate (125 mg) in methanol (50 ml), evaporating the solution to dryness on a rotary evaporator, and drying the residue at 25° C. under vacuum for 1 hour.
Accurately weighed samples of the test materials were placed in Type I flint glass vials and sealed with Teflon-coated stoppers and aluminum caps. The vials were stored at 50° C. The potency of these samples was determined at 2,4 and 8 weeks by HPLC. Samples stored desiccated at 4° C. served as controls (100% assumed potency).
Column: Jones Apex Octadecyl, 5μ, 150×4.6 mm
Mobile phase A: 0.02M ammonium phosphate (mono-basic) in Milli-Q water (pH ~4.5): Acetonitrile (85:15) Mobile phase B: Acetonitrile
Gradient: 0-3 minutes isocratic at 0% B; 3-18 mins--linear gradient 0 to 30% B; 18-23 mins--isocratic at 30% B; 23-25 mins--linear gradient 30 to 0% B; 25-30 mins--re-equilibrate at 100% A (i.e. 0% B) […]
Sample diluent: Mobile phase A
Inj. volume: 20 microliters
Retention times: Etoposide 4'-phosphate--5.4 mins; lignan P--11.5 mins; etoposide--17.5 mins Peak area for etoposide 4'-phosphate was linearly correlated with concentration in the range 0.05-0.20 mg/mL (correlation coefficient=0.9999).
The results of the above-described stability test are given in the following Table in which the term "EP" represents etoposide 4'-phosphate.

[2] = cited from earlier work
[3] = relative to etoposide; cited from earlier work
[4] = previously disclosed fluffy, amorphous forms; cited from earlier work

| Structure (SMILES) | % EP remaining, 2 wk [1] [%] | % EP remaining, 4 wk [1] | % EP remaining, 8 wk [1] | water solubility [2] | activity in in vivo antitumor assays [3] | decomposition upon storage [4] | stability versus other forms of etoposide 4'-phosphate [1] | loss of potency over a 8-week period ([1]; 8-week period) |
| --- | --- | --- | --- | --- | --- | --- | --- | --- |
| COc1cc([C@@H]2c3cc4c(cc3[C@@H](O[C@@H]3O[C@@H]5CO[C@@H](C)O[C@H]5[C@H](O)[C@H]3O)[C@H]3COC(=O)[C@H]23)OCO4)cc(OC)c1OP(=O)(O)O [Crystalline EP, etoposide 4'-phosphate] | 93.3 | 87.9% | 85.1% |  |  |  |  |  |
| COc1cc([C@@H]2c3cc4c(cc3[C@@H](O[C@@H]3O[C@@H]5CO[C@@H](C)O[C@H]5[C@H](O)[C@H]3O)[C@H]3COC(=O)[C@H]23)OCO4)cc(OC)c1OP(=O)(O)O [Amorphous EP 2Na, disodium etoposide 4'-phosphate] | 85.5 | 69.3% | 61.6% | ≥ 100 mg/mL |  |  |  |  |
| COc1cc([C@@H]2c3cc4c(cc3[C@@H](O[C@@H]3O[C@@H]5CO[C@@H](C)O[C@H]5[C@H](O)[C@H]3O)[C@H]3COC(=O)[C@H]23)OCO4)cc(OC)c1O [Etoposide] |  |  |  | about 0.1 mg/ml |  |  |  |  |
| COc1cc([C@@H]2c3cc4c(cc3[C@@H](O[C@@H]3O[C@@H]5CO[C@@H](C)O[C@H]5[C@H](O)[C@H]3O)[C@H]3COC(=O)[C@H]23)OCO4)cc(OC)c1OP(=O)(O)O [Etoposide 4'-phosphate (I), Etoposide 4'-phosphate] |  |  |  | ≥ 100 mg/mL | as active as etoposide | tend to decompose upon storage |  |  |
| COc1cc([C@@H]2c3cc4c(cc3[C@@H](O[C@@H]3O[C@@H]5CO[C@@H](C)O[C@H]5[C@H](O)[C@H]3O)[C@H]3COC(=O)[C@H]23)OCO4)cc(OC)c1OP(=O)(O)O [Crystalline EP 2EtOH, etoposide 4'-phosphate diethanolate] | 100 | 98.4% and 100% | 97.5% and 99.3% |  |  |  | superior stability | very little loss of potency |
| COc1cc([C@@H]2c3cc4c(cc3[C@@H](O[C@@H]3O[C@@H]5CO[C@@H](C)O[C@H]5[C@H](O)[C@H]3O)[C@H]3COC(=O)[C@H]23)OCO4)cc(OC)c1OP(=O)(O)O [Amorphous EP, etoposide 4'-phosphate] | 65.8 | 54.1% | 46.7% |  |  |  |  |  |
